Assay results taken from US20130029983A1, “AMINOTHIENOPYRIDAZINE INHIBITORS OF TAU ASSEMBLY” (priority 2009, published 2013).
Where two headings read alike, the source gives them in different places.

Columns and labels:
[1] = molecular target: T1, K18PL tau (Homo sapiens, UniProt P10636, P618L); assay: Heparin-induced K18PL tau fibrillization assay monitored by ThT fluorescence; format: biochemical; details: for Emax: read-out: K18PL (ThT) maximal percent inhibition achieved in the assay
T1 construct: (K18PL; amino acids 244-369); made in house
In short: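 K18PL (30 μM stock, with 0.24 μM Alexa Red-labeled K18PL) plus 40 μM heparin and compound, fibrillized 6 h at 37 °C. Fibrils read by ThT (12.5 μM final, in 100 mM glycine pH 8.5, 1 h RT), ex 450/em 510 nm. Percent inhibition scaled between DMSO wells and non-fibrillizing K18 KD control wells.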

[2] = molecular target: T1, K18PL tau; assay: K18PL tau centrifugation (sedimentation) assay, SDS-PAGE densitometry; format: biochemical; details: for Emax: SDS-PAGE of soluble and insoluble fractions after centrifugation, read-out: K18PL Sed. Assay, maximal percent inhibition of K18PL fibrillization
In short: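 Heparin-induced fibrillization of K18PL tau in sodium acetate buffer with test compound; mixtures were centrifuged and soluble versus insoluble K18PL quantified by SDS-PAGE densitometry. A repeat run centrifuged DMSO- and compound-treated mixtures for 30 min at time zero to remove pelletable material before incubation.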

[3] = molecular target: T2, full-length tau (tau40) (Homo sapiens, UniProt P10636); assay: Tau40 fibrillization sedimentation assay; format: biochemical; details: SDS-PAGE of soluble and insoluble fractions after centrifugation; for Emax: read-out: Tau40 Sed. Assay, maximal percent inhibition of tau40 fibrillization
T2 construct: Full length tau (Tau40; amino acids 1-441); made in house
Procedure: The determination of compound-induced effects on the amount of tau that remains soluble upon centrifugation, and EM visualization of tau species following incubation with test compounds, were as previously described (Crowe, A., Ballatore, C., Hyde, E., Trojanowski, J. Q., and Lee, V. M. Y. (2007) Biochemical and Biophysical Research Communications 358, 1-6). […]

[4] = Turbidimetric solubility in fibrillization buffer; format: physicochemical; details: 100 mM NaOAc pH 7.0 fibrillization buffer, 1% DMSO
Procedure: Compounds were serially diluted in DMSO to achieve a 2.5 fold dilution series from 20 mM down 8 points to […] on a 384-well master plate (Costar 3672). Aliquots (2 μL) were transferred to a clear 96-well assay plate (Fisher 12-565-501) containing 198 μL fibrillization buffer (100 mM NaOAc pH 7.0) for a 100-fold dilution (200 μM down to 0.3 μM). The plate was incubated with agitation for 2.5 h, and the absorbance at 550, 600, 650 and 700 nm was measured on a Spectramax M5 spectrophotometer. DMSO (1%) in fibrillization buffer served as a control that was subtracted from each data point. The absorbances were averaged and the concentration at which the average absorbance rose above 0.03 AU was an indication of insoluble compound, with solubility limits reported as the previous concentration in the dilution series.

[5] = Brain and plasma drug levels 1 h after i.p. administration (LC-MS/MS); format: in vivo; details: mice; for B/P, ratio between brain/plasma drug level: 1 h after i.p. 5 mg/Kg
Procedure: (§1) Test compounds underwent preliminary evaluations of brain penetration, in which 5 mg/Kg of each compound was administered intraperitoneally (i.p.) to a group of three normal mice; drug levels in brain and plasma were determined at a single time-point (1 h) by LC-MS/MS using pre-validated calibration curves. […] However, both esters appeared to have relatively short half-lives in plasma, as indicated by the limited amount of parent drug detected after 1 h from administration of the compounds. […] CNDR-51362 was selected for full PK analysis in which brain and plasma drug levels were determined at six time points (i.e., 30 min, 1 h, 2 h, 4 h, 8 h, and 16 h). The results from this experiment, illustrated in FIG. 6A, confirmed that the total B/P exposure ratio over 16 h is 1.6. […] Finally, in order to investigate the potential for ATPZ congeners to be orally administered, we evaluated brain and plasma level of CNDR-51362 and CNDR-51349 after oral administration of 5 mg/Kg.
(§2) Brain tissue was homogenized in 10 mM ammonium acetate, pH 5.7 (1:2; w/v) using a handheld sonic homogenizer. Plasma was obtained from blood that was collected into a 1.5 mL tube containing 0.5M EDTA solution and subjected to centrifugation for 10 min. at 4500 g at 4° C. Aliquots (50 μL) of brain homogenate or plasma were mixed with 0.2 mL of acetonitrile, centrifuged at 15,000 g, and the resulting supernatants were used for subsequent LC-MS/MS analysis. The LC-MS/MS system was comprised of an Aquity HPLC and a TQ MS that was controlled using MassLynx software (Waters Corporation, Milford, Mass., USA). Compounds were detected using multiple reaction monitoring (MRM) of their specific collision-induced ion transitions. Samples (5 μL) were separated on an Aquity BEH C18 column (1.7 μm, 2.1×50 mm) at 35° C. Operation was in positive electrospray ionization mode, with mobile phase A of 0.1% (v/v) formic acid, and B of either acetonitrile or methanol with 0.1% (v/v) formic acid at a flow rate of 0.6 mL/min using a gradient from 5% to 95% B over two min., followed by wash and re-equilibration steps. The MS was operated with a desolvation temperature of 450° C. and a source temperature of 150° C. Desolvation and source nitrogen gas flows were 900 L/hr and 50 L/hr, respectively. Source and MS/MS voltages were optimized for each compound using the MassLynx auto tune utility. Standard curves were generated for each compound from brain homogenate and plasma samples that had compound added at 4, 40, 400 and 4000 ng/mL and extracted as above. Peak areas were plotted against concentration and a 1/x weighted linear regression curve was used to quantify the tissue-derived samples using the average peak area from triplicate injections.

[6] = Full PK analysis and oral administration, brain and plasma levels; format: in vivo, mice; details: oral 5 mg/Kg, FIGS. 6B and 6C; 5 mg/kg
Procedure: FIG. 6. (A) Brain and plasma level of F4 (CNDR-51362) after i.v. administration at 2 mg/Kg; (B) Brain and plasma level of F4 (CNDR-51362) after oral administration at 5 mg/Kg; (C) Brain and plasma level of F3 (CNDR-51349) after oral administration at 5 mg/Kg
as §1, §2

[7] = molecular target: T3, Aβ(1-42) (Homo sapiens, UniProt P05067); assay: Aβ(1-42) fibrillization assay (ThT); format: biochemical; details: Table 3; highest tested concentration (80 μM); read-out: Aβ42 ThT Assay % Inhib.
T3 construct: Synthetic Aβ(1-42) peptide (rPeptide); purchased rPeptide

[8] = molecular target: T4, Tau40 (Homo sapiens, UniProt P10636); assay: SEC of Tau40 fibrillization post-centrifugation supernatants; format: biochemical; details: tau40 fibril assembly with 5b relative to untreated fibrillization reaction, FIG. 2
T4 construct: Full length tau (Tau40; amino acids 1-441); made in house
Procedure: Tau40 (50 μM) and heparin (20 μM) were incubated in a PCR tube with or without the compound 5b (100 μM) at 37° C. for 5 days in a final volume of 100 μl of […] sodium acetate buffer, pH 7.0. In the absence of compound, tau40 fibrillization is complete under these conditions, as determined by ThT fluorescence and centrifugation assays. A non-assembly control reaction was also prepared as above with Tau40 and 5b in the absence of heparin. The completed reactions were centrifuged at 40,000 g for 30 minutes to sediment fibrils and the supernatants were applied to a Superdex 200 10/300 column (GE Healthcare) employing an Äkta Basic FPLC unit (GE Healthcare) with a flow rate of 0.4 ml/minute. Tau elution was monitored by absorbance at 280 nm. Under these chromatography conditions, monomeric tau can be separated from oligomeric species (Li, W. K. and Lee, V. M. Y. (2006) Biochemistry 45, 15692-15701).

[9] = molecular target: T5, K18 tau-mediated tubulin polymerization (Homo sapiens, UniProt P10636); assay: Tau-mediated MT assembly assay (K18 tau, tubulin); format: biochemical, bovine (tubulin); details: 50 μM compound, FIG. 1A
T5 construct: (K18PL; amino acids 244-369)
Procedure: The effect of compounds on tau-mediated MT assembly was essentially as described (Hong, M., Zhukareva, V., Vogelsberg-Ragaglia, V., Wszolek, Z., Reed, L., Miller, B. I., Geschwind, D. H., Bird, T. D., McKeel, D., Goate, A., Morris, J. C., Wilhelmsen, K. C., Schellenberg, G. D., Trojanowski, J. Q., and Lee, V. M. Y. (1998) Science 282, 1914-1917), adapted to a 384-well plate. […] Lyophilized bovine brain tubulin (Cytoskeleton Inc.) was reconstituted in RAB (100 mM MES, pH 6.9; 1 mM EDTA; 0.5 mM MgSO4) at a concentration of 10 mg/ml. Compounds (50 μM) were added to K18 tau (40 μM) in RAB and pre-incubated at room temperature for 60 minutes. To initiate the MT assembly reaction, 8.25 μl per well of 10 mg/ml tubulin was dispensed on a UV-clear 384-well plate (Corning #3675), followed by 1.0 μl of 100 mM GTP in RAB and 41.25 μl of the compound:tau mixture. […] The plate was incubated in a Spectramax M5 plate reader at 37° C. and the absorbance at 340 nm was read every minute for 45 minutes.

[10] = Table 5, read-out: K18PL (ThT) IC50 value

T1 sequence (P10636 561-686 P618L): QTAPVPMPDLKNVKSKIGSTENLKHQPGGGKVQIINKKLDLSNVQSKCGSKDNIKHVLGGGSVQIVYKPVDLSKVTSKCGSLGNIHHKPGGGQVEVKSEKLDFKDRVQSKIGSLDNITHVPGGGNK
T2 sequence (P10636 1-441 isoform P10636-8): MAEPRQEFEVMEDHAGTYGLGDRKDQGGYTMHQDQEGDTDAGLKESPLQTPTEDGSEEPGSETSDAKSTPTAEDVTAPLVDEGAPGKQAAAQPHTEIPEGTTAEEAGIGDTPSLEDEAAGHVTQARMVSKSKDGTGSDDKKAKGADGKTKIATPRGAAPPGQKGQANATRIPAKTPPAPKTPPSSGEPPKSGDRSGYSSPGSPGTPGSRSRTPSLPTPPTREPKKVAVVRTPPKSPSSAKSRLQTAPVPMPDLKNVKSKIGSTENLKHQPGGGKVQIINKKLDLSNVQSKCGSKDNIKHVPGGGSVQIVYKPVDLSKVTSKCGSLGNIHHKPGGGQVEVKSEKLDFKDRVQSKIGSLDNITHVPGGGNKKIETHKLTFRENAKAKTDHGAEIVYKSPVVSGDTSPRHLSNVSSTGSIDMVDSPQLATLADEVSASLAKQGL
T5 sequence (P10636 561-686): as the sequence (P10636 561-686 P618L) above, with L58P counted along it
T3 sequence (P05067 672-713 limits assumed): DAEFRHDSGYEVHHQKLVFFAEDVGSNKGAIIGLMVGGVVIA
T4 sequence (P10636 1-441 isoform P10636-8): as the sequence (P10636 1-441 isoform P10636-8) above

Compound	IC50 [1, 10] [µM]	Emax ([1]; Table 5) [%]	Emax [2] [%]	Tau40 Sed. Assay, maximal percent inhibition of tau40 fibrillization [3] [%]	Emax [3] [%]	Water Solubility [4] [µM]	B/P, ratio between brain/plasma drug level [5]	Brain level ([5]; 1 h after i.p. 5 mg/kg, listed as CNDK-51349, 5 mg/kg) [ng/g]	Brain concentration after oral administration [6]	inhibition at 80 µM ([1]; Table 3, highest tested concentration (80 μM), read-out: Tau ThT Assay % Inhib.) [%]	IC50 ([1]; Table 3, logarithm of IC50, K18PL tau ThT fluorescence inhibition, NC = not calculated due to insufficient activity, read-out: Tau ThT Assay Log IC50 (converted)) [µM]	Tau Cent. Assay % Soluble ([2]; Table 3, K18PL tau centrifugation assay) [%]	inhibition at 80 µM [7] [%]	Monomeric tau in post-centrifugation supernatant (SEC) [8]	Effect on tau-mediated tubulin polymerization (MT formation) [9]
CC(C)NC(=O)c1nn(-c2ccc(Cl)cc2)c(=O)c2c(N)scc12 [CNDR-51349, 5-Amino-3-(4-chlorophenyl)-N-isopropyl-4-oxo-3,4-dihydrothieno[3,4-d]pyridazine-1-carboxamide]	0.7	88	65	45	50 to 60	32	2.2	1100	significant brain concentrations	–	–	–	–	–	–
CCN(C)C(=O)c1nn(-c2ccc(Cl)cc2)c(=O)c2c(N)scc12 [CNDR-51366, 5-Amino-3-(4-chlorophenyl)-N-ethyl-N-methyl-4-oxo-3,4-dihydrothieno[3,4-d]pyridazine-1-carboxamide]	6.8	91	62	58	50 to 60	80	0.89	–	–	–	–	–	–	–	–
CNC(=O)c1nn(-c2ccc(Cl)cc2)c(=O)c2c(N)scc12 [CNDR-51367, 5-Amino-3-(4-chlorophenyl)-N-methyl-4-oxo-3,4-dihydrothieno[3,4-d]pyridazine-1-carboxamide]	4.3	91	68	51	50 to 60	13	0.49	–	–	–	–	–	–	–	–
CC(C)NC(=O)c1nn(-c2ccc(Br)cc2)c(=O)c2c(N)scc12 [CNDR-51390, 5-Amino-3-(4-bromophenyl)-N-isopropyl-4-oxo-3,4-dihydrothieno[3,4-d]pyridazine-1-carboxamide]	2.2	89	58	55	50 to 60	13	2.0	–	–	–	–	–	–	–	–
CCOC(=O)c1nn(-c2ccc(OC)cc2)c(=O)c2c(N)scc12 [Compound 5b]	–	–	–	–	–	–	–	–	–	86	5.01	64	28	appreciable increase in the amount of monomeric tau	–
CN(C)c1ccc2nc3ccc(=[N+](C)C)cc-3sc2c1 [methylene blue]	–	–	–	–	–	–	–	–	–	–	–	–	–	–	significant diminution
